According to patent US20110003757A1, “PHARMACEUTICAL COMPOSITIONS FOR TREATING FATTY LIVER DISEASE” (ASTELLAS PHARMA INC., priority 2008, published 2011):

Tests used:
SGLT = settings: disclosed in Patent Documents 3, 5 and 6; cited from earlier work
KK-A^y mice = test: Liver triglyceride content in nonalcoholic simple fatty liver model (KK-A^y mice); assay type: in vivo; settings: for Effect on liver triglyceride content (in words): versus vehicle; for Liver triglyceride content: mean±standard error
Experimental: KK-A^y mice (female, purchased from CLEA Japan, Inc.) were used. The mice were fed with CMF (for special breeding, purchased from Oriental Yeast Co., Ltd., Japan) ad libitum. At 14 weeks of age, they were measured for their body weight, blood glucose levels, plasma insulin levels, plasma triglyceride levels and plasma alanine aminotransferase (ALT), and then divided into two groups such that these items were equal between the groups (8 animals per group). The first group was administered with vehicle (0.5% methylcellulose) at a dose of 10 mL/kg, and the second group was administered with a choline salt of (1S)-1,5-anhydro-1-[5-(azulen-2-ylmethyl)-2-hydroxyphenyl]-D-glucitol (i.e., a choline salt of Compound A) at a dose of 3 mg/kg (calculated as Compound A), each being administered orally once a day for 2 weeks. On the day following the final administration, the liver was collected from each mouse under ether anesthesia, frozen in liquid nitrogen and then stored at −80° C.
Liver triglyceride content was measured in the following manner.
1. A portion (50 to 150 mg) of each liver frozen and stored at −80° C. was taken to an Assist tube. 2. After addition of methanol (2 mL), the liver sample was homogenized with a POLYTRON (KINEMATICA). 3. To the homogenate, chloroform (4 mL) was added and vigorously stirred at room temperature for 10 minutes. 4. Milli-Q water (1 mL) was further added and vigorously stirred. 5. The sample was centrifuged in a low speed centrifuge (Hitachi, Ltd., Japan) (2,500 rpm, 5 min, room temperature). 6. A portion of the lower layer (total volume: 4.5 mL) was taken to an Eppendorf tube and evaporated in a centrifugal evaporator (Sakuma Seisakusho, Japan) to remove the solvent. 7. The residue in the Eppendorf tube was dissolved again by addition of ethanol (10 μL). 8. Triglyceride E-Test Wako reagent (1 mL, Wako Pure Chemical Industries, Ltd., Japan) was added to the resulting solution, and triglycerides were quantified. 9. From the result obtained above, the triglyceride content per g of liver was calculated for each sample. The data were expressed as mean±standard error.
(§1) The test was conducted in the same manner as shown in Example 1, except that this test was conducted with 3 groups of 8 animals, and the first group was administered with vehicle (0.5% methylcellulose) at a dose of 10 mL/kg, the second group was administered with a co-crystal (1:1 molar ratio) of (1S)-1,5-anhydro-1-[3-(1-benzothiophen-2-ylmethyl)-4-fluorophenyl]-D-glucitol (Compound B) and L-proline at a dose of 3 mg/kg (calculated as Compound B), and the third group was administered with a control compound, 2-(4-methoxybenzyl)phenyl 6-O-ethoxycarbonyl-β-D-glucopyranoside (hereinafter also referred to as Compound X, whose structural formula is shown below) disclosed in Patent Document 1 (supra) at a dose of 36 mg/kg, each being administered orally once a day for 2 weeks. Then, the liver triglyceride content was measured for each group in the same manner as shown in Example 1.
as §1, with “Compound B” for “(1S)-1,5-anhydro-1-[3-(1-benzothiophen-2-ylmethyl)-4-fluorophenyl]-D-glucitol (Compound B)”, “T-1095 disclosed in Patent Document 2 (supra), i.e., 3-(benzo[b]furan-5-yl)-2′,6′-dihydroxy-4′-methylpropiophenone 2′-O-(6-O-methoxycarbonyl)-β-D-glucopyranoside” for “2-(4-methoxybenzyl)phenyl 6-O-ethoxycarbonyl-β-D-glucopyranoside”, “Y,” for “X,”, “below)” for “below) disclosed in Patent Document 1 (supra)”, “34” for “36”
The test was conducted in the same manner as shown in Example 1. […]

db/db mice = settings: disclosed in Patent Document 2; cited from earlier work
MCD diet-fed Wistar rats = test: Nonalcoholic steatohepatitis model, MCD diet-fed rats: liver histopathology scores; assay type: in vivo; settings: co-crystal of Compound B and L-proline 3 mg/kg orally once a day for 16 weeks, five-point scale 0-4, versus MCD diet vehicle group
Experimental: This test was conducted by reference to a document (J. Hepatol., 2003, 39, 756-764). Wistar rats (male, purchased from Charles River Japan, Inc.) were used. The rats were fed with MCD diet (methionine/choline-deficient diet, MP Biochemicals) or normal control diet (methionine/choline control diet, MP Biochemicals) ad libitum. At 9 weeks of age, they were measured for their body weight and divided into groups of equal body weight, followed by initiation of the test (10 animals per group). The first group was fed with normal control diet and administered with vehicle (0.5% methylcellulose) at a dose of 5 mL/kg. The second and third groups were fed with MCD diet, and the second group was administered with vehicle (0.5% methylcellulose) at a dose of 5 mL/kg, while the third group was administered with a co-crystal (1:1 molar ratio) of Compound B and L-proline at a dose of 3 mg/kg (calculated as Compound B). Each drug was administered orally once a day for 16 weeks. On the day following the final administration, the liver was collected from each rat under ether anesthesia and a portion of the liver was fixed in 10% neutral buffered formalin. […]

[1] = tested on: CDAA diet-fed Wistar rats; test: Nonalcoholic steatohepatitis model, CDAA diet-fed rats: hepatic fibrosis score; assay type: in vivo; settings: Example 5, FIG. 3; co-crystal of Compound B and L-proline 3 mg/kg orally once a day for 5 weeks; five-point scale 0-4; versus CDAA diet vehicle group
Experimental: This test was conducted by reference to a document (Biochem Biophys Res Commun., 2004, 315(1), 187-195). Wistar rats (male, purchased from Charles River Japan, Inc.) were used. The rats were fed with CDAA diet (choline-deficient L-amino acid-defined diet (Choline Deficient and Iron Supplemented L-Amino Acid Defined Rat Diet, Dyets)) or normal control diet (Choline and Iron Supplemented L-Amino Acid Defined Rat Diet, Dyets) ad libitum. At 9 weeks of age, they were measured for their body weight and divided into groups of equal body weight, followed by initiation of the test (10 animals per group). […] The second and third groups were fed with CDAA diet, and the second group was administered with vehicle (0.5% methylcellulose) at a dose of 5 mL/kg, while the third group was administered with a co-crystal (1:1 molar ratio) of Compound B and L-proline at a dose of 3 mg/kg (calculated as Compound B). […] After a portion of the liver was fixed in 10% neutral buffered formalin, paraffin sections (3 μm) were prepared in a standard manner and subjected to van Gieson staining Fibrosis was evaluated by reference to the Brunt classification (Clinical Practice Guidelines for NASH/NAFLD, edited by the Japan Society of Hepatology, 2006), based on a five-point scale of 0, 1, 2, 3 and 4 (see Table 4).

OC[C@H]1O[C@@H](c2cc(Cc3cc4cccccc-4c3)ccc2O)[C@H](O)[C@@H](O)[C@@H]1O [Compound A, (1S)-1,5-anhydro-1-[5-(azulen-2-ylmethyl)-2-hydroxyphenyl]-D-glucitol]
SGLT inhibitory activity (SGLT): shows SGLT inhibitory activity | Effect on liver triglyceride content (in words) (KK-A^y mice; Example 1, 3 mg/kg orally once a day for 2 weeks): significantly improved | Liver triglyceride content (KK-A^y mice; Example 1, choline salt of Compound A, 3 mg/kg (calculated as Compound A) orally once a day for 2 weeks, vehicle 60.0 ± 8.4): 30.7 ± 5.4 mg/g liver

CCOC(=O)OC[C@H]1O[C@@H](Oc2ccccc2Cc2ccc(OC)cc2)[C@H](O)[C@@H](O)[C@@H]1O [Compound X, 2-(4-methoxybenzyl)phenyl 6-O-ethoxycarbonyl-β-D-glucopyranoside, reference compound]
Liver triglyceride content (KK-A^y mice; Example 2, 3 mg/kg orally once a day for 2 weeks, vehicle 52.8 ± 4.9): 57.9 ± 4.5 mg/g liver | Effect on liver triglyceride content (in words) (KK-A^y mice; Example 2, 36 mg/kg orally once a day for 2 weeks): no significant effect | Effect on liver triglyceride content (in words) (KK-A^y mice; Example 3, 34 mg/kg orally once a day for 2 weeks): no significant effect

CCOc1ccc(Cc2cc([C@@H]3O[C@H](CO)[C@@H](O)[C@H](O)[C@H]3O)ccc2Cl)cc1 [Compound C, (1S)-1,5-anhydro-1-[4-chloro-3-(4-ethoxybenzyl)phenyl]-D-glucitol]
Effect on liver triglyceride content (in words) (KK-A^y mice; Example 6, 3 mg/kg orally once a day for 2 weeks): significantly improved | Liver triglyceride content (KK-A^y mice; Example 6, 3 mg/kg orally once a day for 2 weeks, vehicle 60.2 ± 7.1): 28.6 ± 3.9 mg/g liver

COC(=O)OC[C@H]1O[C@@H](Oc2cc(C)cc(O)c2C(=O)CCc2ccc3occc3c2)[C@H](O)[C@@H](O)[C@@H]1O [Compound Y, 3-(benzo[b]furan-5-yl)-2′,6′-dihydroxy-4′-methylpropiophenone 2′-O-(6-O-methoxycarbonyl)-β-D-glucopyranoside, reference compound]
Liver triglyceride content (KK-A^y mice; Example 3, 34 mg/kg orally once a day for 2 weeks, vehicle 59.7 ± 6.2): 59.7 ± 8.9 mg/g liver | Blood triglyceride levels (db/db mice): reduced blood triglyceride levels

OC[C@H]1O[C@@H](c2ccc(F)c(Cc3cc4ccccc4s3)c2)[C@H](O)[C@@H](O)[C@@H]1O [Compound B, (1S)-1,5-anhydro-1-[3-(1-benzothiophen-2-ylmethyl)-4-fluorophenyl]-D-glucitol]
Pathological score of inflammatory cell infiltration (MCD diet-fed Wistar rats; Example 4, FIG. 1): significantly improved | Pathological score of hepatic fibrosis (MCD diet-fed Wistar rats; Example 4, FIG. 2): significantly improved | SGLT inhibitory activity (SGLT): shows SGLT inhibitory activity | Effect on liver triglyceride content (in words) (KK-A^y mice; Example 2, 3 mg/kg orally once a day for 2 weeks): significantly improved | Liver triglyceride content (KK-A^y mice; Example 2, co-crystal of Compound B and L-proline, 3 mg/kg (calculated as Compound B) orally once a day for 2 weeks, vehicle 52.8 ± 4.9): 34.8 ± 1.9 mg/g liver | Effect on liver triglyceride content (in words) (KK-A^y mice; Example 3, 3 mg/kg orally once a day for 2 weeks): significantly improved | Liver triglyceride content (KK-A^y mice; Example 3, co-crystal of Compound B and L-proline, 3 mg/kg (calculated as Compound B) orally once a day for 2 weeks, vehicle 59.7 ± 6.2): 41.2 ± 5.1 mg/g liver | Pathological score of hepatic fibrosis [1]: significantly improved
